This note sets out measurements from patent US7704502B2, “Combinations of antibodies selective for DR5 and other therapeutic agents” (The UAB Research Foundation, priority 2000, dated 2010).

Residues, ends and D or L forms follow the SMILES beside them. *: point of attachment. Cbz = O=C(OCc1ccccc1)*; CH2F = FC*

Data set [1] deals with Jurkat cells. Briefly: Jurkat cell viability after overnight culture (ATPLite, MTT, PI exclusion). The data set is classed as cell-based, human. Particulars: 50 ng/ml TRA-8 overnight plus caspase inhibitor. The protocol:
Cell viability is determined using (1) the ATPLite® kit according to the manufacturer's instructions (Packard Instruments, Meriden, Conn.); (2) the MTT Cell proliferation/viability kit (Sigma); or (3) PI staining of dead cells and analyzed by flow cytometry. At end of culture, cells are stained with 10 μg/ml PI and PI negative cells are gated as viable cells. For analysis of condensed nuclei of hepatocytes, cells are stained with 10 ng/ml Hoechst 33352 (Molecular Probes) and analyzed by flow cytometry.
A general note: Cellular ATP, detected with luciferase, serves as a proxy for viable cell number.

In data set [2] the test system is MMP-1, 3, and 13. Briefly: Production of MMPs by RA synovial cells (ELISA). The data set is classed as cell-based, human. Conditions: overnight; 50 ng/ml interleukin 1b, 10 ng/ml TNF-a, 50 ng/ml TRAIL or TRA-8; vs medium control. The protocol: Thus, it is possible that TRAIL, like TNF-α, may serve as a pro-inflammatory cytokine. […] The levels of the MMP-1 and MMP-3 in the culture supernatants are determined by the ELISA kits.
In general terms: In an ELISA, binding on a coated surface is turned into a signal by an enzyme label.

Data set [3] deals with 2LMP human breast cancer xenografts. The data set can be described thus: TRA-8 therapy alone or with chemotherapy or radiation, breast cancer xenografts. The data set is classed as in vivo, athymic nude mice. The protocol: Athymic nude mice were injected s.c. with 3×10^7 2LMP cells. […] The growth of tumors was monitored over time. […] Tumor size and regression rates were determined.
Data from 6 independent experiments were analyzed by individual experiment. Treatment combinations were compared with respect to in vivo anti-tumor efficacy, i.e., inhibition of tumor growth, which was measured as three endpoints; extension of tumor doubling times, percentage of tumor regressions, and growth rates over time. The actual number of days at which the tumor doubled in surface area (product of two diameters) relative to baseline on day 7 after tumor cell injection was used in the doubling time analysis. The nonparametric Kruskal-Wallis test was used for median tumor doubling time comparisons between treatments. Fisher's exact test was used to compare the proportions of tumor regressions and relapse-free regressions across treatment groups. To determine if any combination therapy produced significant synergistic inhibition of tumor growth, i.e., more than additive, the growth curves from the serial area measurements were compared using a linear mixed model approach over the first 3 weeks after start of therapy (Lindsey, J. K. Models for Repeated Measurements, pp. 100-142, Oxford, 1993). To test for synergistic effects of the combination therapies, an interaction term was included in the model. If the interaction term was significant and the effect was inhibition of growth at a rate greater than additive then the interaction was considered synergistic.
A total of 166 animals, 10 treatment groups, and 6 independent experiments were included in the aggregate analysis. Treatment combinations were compared with respect to in vivo anti-tumor efficacy. The median tumor doubling times were analyzed using the Kruskal-Wallis test and Fisher's exact test was used to compare the proportions of tumor regressions and relapse-free regressions across treatment groups.

Data set [4] deals with 2LMP xenografts. The data set can be described thus: Analysis of apoptosis in xenografts (TUNEL). The data set is classed as in vivo, athymic nude mice. Particulars: day 14. The protocol:
One group of mice was untreated. The xenografts were dissected for the study of apoptosis on day 14 after tumor cell injection. The reason for the substantial reduction in treatment intensity compared to our standard treatment protocol was to allow adequate tumor tissue for analysis on day 14. Tunel assay for apoptosis in tumor xenografts was performed as follows. Five-micron paraffin sections of tissue were mounted on Superfrost/Plus slides and heated at 58° C. for 1 h. Tissue sections were deparaffinized in three changes of xylene and rehydrated with one change of absolute ethanol, 95% ethanol, and 70% ethanol, each in 5-min increments. Then, the sections were placed in Tris-buffered saline (0.5M Tris base, 0.15 M NaCl, 0.0002% Triton X-100™, pH 7.6). Apoptotic nuclei were detected using an Apop Tag Peroxidase kit (Intergen, Purchase, N.Y.). Proteinase K (20 μg/ml in distilled deionized H2O) was added to the tissue specimens and incubated at room temperature for 15 min. Endogenous peroxidases were quenched with an aqueous solution of 3% hydrogen peroxide for 5 min. Sections were treated with an equilibration buffer for 30 min and then incubated with the TdT/enzyme (diluted in labeling reaction mix) for 1 h at 37° C. using parafilm covers. During this incubation, the TdT enzyme binds the 3′-OH ends of DNA fragments and catalyzes the addition of digoxigenin-labeled and unlabeled deoxynucleotides. Negative controls were incubated with distilled H2O (diluted in labeling reaction mix) instead of the TdT enzyme. A stop buffer was added for 10 min at room temperature to terminate the labeling reaction. An anti-digoxigenin conjugate was added to each slide for 30 min. The chromagen 3,3′ DAB was used to visualize the labeled 3′ OH end of DNA fragments. The slides were then rinsed in deionized water and lightly counterstained with hematoxylin, dehydrated using graded alcohols and xylene and coverlsipped using Permount. Approximately 10 random fields were evaluated for percentage of Tunel stained and percentage of intensely stained apoptotic bodies throughout the tissue.

In data set [5] the test system is NF-κb. Briefly: Gel-shift assay of NF-κb activation in RA synovial cells. The data set is classed as cell-based, human. Conditions: 50 ng/ml TRAIL, Fas ligand or TRA-8; 20 ng/ml TNF-a. The protocol: There is considerable evidence to support the concept that there are close links between the signaling of apoptosis and the signaling of proliferation (45). It has been established that DR5 is able to activate a NF-kb pathway in addition to apoptosis signaling transduction, and that NF-κb activation may be able to transduce an anti-apoptosis signal. Therefore a gel-shift assay is carried out. […] The nuclear extracts are prepared and incubated with the […] [^32P]-labeled oligo-DNA probe. The results are analyzed using the cyclone phospha-imager (TopCount NXT, Packard Instrument Company, CT).

The test system of data set [6] is normal human hepatocytes. Briefly: Hepatocellular toxicity, cell viability (ATPLite). The data set is classed as cell-based. Conditions: Fas-mediated apoptosis, 6 hours. The text has this: For 24-hour cell viability assays, fresh normal human hepatocytes in 96-well plates were purchased from In Vitro Technology (Baltimore, Md.). […] For 6-hour viability assays, normal hepatocytes or hepatocellular cancer cells are isolated from fresh surgical specimens collected from UAB Tissue Procurement Center. All reagents for isolation of human hepatocytes including hepatocytes perfusion buffer, digest medium, washing medium, and attachment medium were purchased from Gibco. The tissue slides are digested in the Hepatocyte Digest Medium at 37° C. with shaking (50 rpm) for one hour. The isolated hepatocytes are harvested by low speed centrifugation (50 g, 3 min), and washed with the Hepatocyte Washing Medium six times. Single cell suspension of hepatocytes are cultured in the Attachment Medium containing 10% FCS in 96-well Matrigel plates (BD) for six hours. Non-attached hepatocytes are removed by twice washing with pre-warmed attachment medium.

Where [7] appears, read: aggregate of 6 experiments, number of animals (%).
Setting [8] is: aggregate of 6 experiments, relative to day 7.

With `CC(NC(=O)C(NC(=O)OCc1ccccc1)C(C)C)C(=O)NC(CC(=O)O)C(=O)CF` (stereo not drawn) [Z-VAD] (Cbz-Val-Ala-Asp-CH2F; configuration not given here), the “inhibition of TRA-8-induced cell death” value in data set [1] is “completely inhibited”.
As to IL-1b: proinflammatory cytokine, in data set [2], the “production/release of MMPs” value is “increased”.
On to `COc1cccc2c1C(=O)c1c(O)c3c(c(O)c1C2=O)C[C@@](O)(C(=O)CO)C[C@@H]3O[C@H]1C[C@H](N)[C@H](O)[C@H](C)O1` [Adriamycin, adriamycin (doxorubicin)], for which, in data set [3] (setting [7]), the “Complete Regressions No relapse (%)” value was 0 and the “Complete Regressions Total (%)” value turned out to be 0. In data set [3] (setting [8]), the “Tumor Doubling Time (mean)” value came out at 17 days and the “Tumor Doubling Time (median)” value turned out to be 18 days. Also, in data set [3] (individual experiments, TRA-8 200 μg i.p. x6, adriamycin 6 mg/kg, paclitaxel 20 mg/kg, 3 Gy 60Co, Kruskal-Wallis on doubling times), the “inhibition of tumor growth compared to untreated controls” value was “did not differ from controls”. The TUNEL stained cells in data set [4] (100 μg TRA-8 days 7, 10, adriamycin 3 mg/kg or paclitaxel 10 mg/kg days 8, 11, untreated 4%) was 8%. This molecule also yielded an intensely stained cells in data set [4] (same regimen, untreated 1%) of 6%.
As to TNF-α, the NF-κb activation entry in data set [5] is “activated in a time-dependent fashion”. In addition, the “production/release of MMPs” value in data set [2] is “increased”.

B1: Fas ligand: soluble Fas ligand used with enhancer/crosslinker (protein, UniProt P48023 103-281, looked up)
extracellular domain: QLFHLQKELAELRESTSQMHTASSLEKQIGHPSPPPEKKELRKVAHLTGKSNSRSMPLEWEDTYGIVLLSGVKYKKGGLVINETGLYFVYSKVYFRGQSCNNLPLSHKVYMRNSKYPQDLVMMEGKMMSYCTTGQMWARSSYLGAVFNLTSADHLYVNVSELSLVNFEESQTFFGLYKL
modifications: extracellular domain
notes: soluble Fas ligand used with enhancer/crosslinker
In the case of B1, in data set [5], the NF-κb activation entry is “unable to induce”. In data set [6], the “difference in susceptibility among normal hepatocytes, hepatocellular carcinoma cells, and HepG2 cells” value is “no significant difference”.
